From paper PMC7311426, “An amphipathic peptide with antibiotic activity against multidrug-resistant Gram-negative bacteria” (Nature Communications, 2020)
≈ marks a conversion by molar mass, not a printed value. Residues, ends and D or L forms follow the SMILES beside them.

Tests used:
C. albicans = test: microbe, parasite or virus in culture
Experimental: (§1) Antimicrobial activity of arenicin-3 and its analogs was tested against a panel of bacterial and yeast strains by in vitro broth microdilution (BMD) assay with minimum inhibitory concentration (MIC) determination. Strains were purchased from American Type Culture Collection (ATCC) or obtained from clinical collaborators (full strain profiles provided in Supplementary Data 3). All peptides were prepared in Ringer’s acetate solution, and subsequently diluted fresh in water for each independent assay.
(§2) Assays were performed in Mueller Hinton broth (MHB; BD, Cat. No. 211443) for bacteria, and yeast extract-peptone dextrose (YPD; Sigma-Aldrich, Y1500) for yeast. The concentrations of the peptides and comparator antibiotics/antifungals in the assay wells ranged from either 128 or 64 μg mL^−1, to 0.06 or 0.03 μg mL^−1 as a 12-point dose response plated as a 2-fold dilution series across the wells of the plate in duplicate for each independent biological replicate, using a final cell density of 5 × 10^5 CFU mL^−1 and 2.5 × 10^3 CFU mL^−1 for bacteria and yeast respectively. Final assay volumes were 100 μL per well with MICs determined visually following 18-20 h incubation at 37 °C for bacteria, 24 h incubation at 35 °C for Candida albicans, and 24 h incubation at 35 °C with resazurin addition (0.006%; Sigma-Aldrich, Cat # R7017) for a further 3 h for Cryptococcus neoformans, without shaking. Additional bacterial and yeast susceptibility assays were performed in Cation-Adjusted Mueller Hinton Broth (CAMHB; BD, Cat No. 212322) and Roswell Park Memorial Institute (RPMI) 1640 culture medium (Life Technologies Australia, Cat No. 21870092), respectively, as recommended by CLSI guidelines (M07 11th ed[36] and M27 4th ed[37]). […] Agarose MICs were determined in MHB with 1% agarose (Bioline molecular grade; Cat no: BIO-41025; high purity, high gel strength). All experiments were performed a minimum of six replicates (n ≥ 6).

C. neoformans = test: microbe, parasite or virus in culture; settings: C. neoformans ATCC 208821 H99, mode of 6 replicates
Experimental: as §1, §2

A. baumannii = test: microbe, parasite or virus in culture
Experimental: as §1, §2

S. aureus = test: microbe, parasite or virus in culture
Experimental: as §1, §2

P. aeruginosa = test: microbe, parasite or virus in culture
Experimental: as §1, §2

K. pneumoniae = test: microbe, parasite or virus in culture
Experimental: as §1, §2

E. coli = test: microbe, parasite or virus in culture
Experimental: as §1, §2

E. coli ATCC 25922 = test: microbe, parasite or virus in culture; assay type: cell-based, Escherichia coli; settings: ATCC 25922
Experimental: Assays were performed in Mueller Hinton broth (MHB; BD, Cat. No. 211443) for bacteria, and yeast extract-peptone dextrose (YPD; Sigma-Aldrich, Y1500) for yeast. The concentrations of the peptides and comparator antibiotics/antifungals in the assay wells ranged from either 128 or 64 μg mL^−1, to 0.06 or 0.03 μg mL^−1 as a 12-point dose response plated as a 2-fold dilution series across the wells of the plate in duplicate for each independent biological replicate, using a final cell density of 5 × 10^5 CFU mL^−1 and 2.5 × 10^3 CFU mL^−1 for bacteria and yeast respectively. Final assay volumes were 100 μL per well with MICs determined visually following 18-20 h incubation at 37 °C for bacteria, 24 h incubation at 35 °C for Candida albicans, and 24 h incubation at 35 °C with resazurin addition (0.006%; Sigma-Aldrich, Cat # R7017) for a further 3 h for Cryptococcus neoformans, without shaking. Additional bacterial and yeast susceptibility assays were performed in Cation-Adjusted Mueller Hinton Broth (CAMHB; BD, Cat No. 212322) and Roswell Park Memorial Institute (RPMI) 1640 culture medium (Life Technologies Australia, Cat No. 21870092), respectively, as recommended by CLSI guidelines (M07 11th ed[36] and M27 4th ed[37]). […] However, for yeast it was determined that the YPD media was more reliable and robust between repeats and therefore MICs in this media are reported. […] Agarose MICs were determined in MHB with 1% agarose (Bioline molecular grade; Cat no: BIO-41025; high purity, high gel strength). All experiments were performed a minimum of six replicates (n ≥ 6).

in vitro = settings: human
Experimental: (§3) HEK-293 human embryonic kidney cells (ATCC CRL-1573), HepG2 liver hepatocellular carcinoma cells (ATCC HB-8065), and HK-2 human kidney proximal tubule cells (ATCC CRL-2190) cell lines were purchased from ATCC. Cytotoxicity of arenicin-3 variants was determined using the Alamar Blue (resazurin; Sigma-Aldrich, Cat # R7017), with 1% FBS for HK-2 and 10% FBS for HEK-293, and HepG2[40]. Cells were seeded as 2000 cells per well in black wall clear bottom 384-well plates (Corning®, Costar®, Cat # 3712). The cells were incubated for 24 h at 37 °C, 5% CO2. Then peptides were added into each cell containing well. After 24 h incubation, 5 μM resazurin were added per well and incubated at 37 °C for 2 h. Then the fluorescence intensity (FI) was read using a Polarstar® Omega plate reader with excitation/emission 560/590 and CC50 values were determined using Prism 8 following curve fitting and applying the following equation: Percentageviability = (FITEST-FINegative/FIUNTREATED-FINegative)×100.
(§4) Hemolytic activity was measured against isolated human erythrocytes from anonymously donated fresh human blood. Isolated erythrocytes were adjusted to 1 × 10^9 blood cells mL^−1 in phosphate-buffered saline (PBS, pH 7.4), added to the wells of NUNC polypropylene round-bottom 96-well plates (Sigma-Aldrich, Cat # P6866) then up to 300 μg mL^−1 of compound was added per well and incubated for 3 h at 37 °C. Following incubation, samples were centrifuged at 3000 rpm for 20 min, and the supernatants, 100 μL, were carefully collected for measurement. The degree of hemolysis in the samples was determined by measurement of the absorption of the supernatants at 540 nm using the Polarstar-Omega plate reader. 1% Triton-X100 was used as positive control for inducing 100% hemolysis. HC10 and HC50 values were determined using Prism 8 following curve fitting. The use of human blood (sourced from the Australian Red Cross Blood Service) for hemolysis assays was approved by the University of Queensland Institutional Human Research Ethics Committee, Approval Number 2014000031. All in vitro toxicity assays were performed for two independent biological replicates as an 8-point dose response of 3-fold dilution series in triplicate with the highest test concentration of 300 μg mL^−1.

[1] = tested on: HEK-293 human embryonic kidney cells; test: in vitro
Experimental: as §3, §4

[2] = tested on: HepG2 liver hepatocellular carcinoma cells; test: in vitro
Experimental: as §3, §4

[3] = tested on: HK-2 human kidney proximal tubule cells; test: in vitro
Experimental: as §3, §4

[4] = tested on: human erythrocytes (HRBC); assay type: cell-based; settings: for Heamolysis HC10: red cells of human, 3 h
E. coli K12 MG1655 = test: ATP release, BacTiter-Glo luminescence; assay type: cell-based, Escherichia coli; settings: E. coli K12, X = xMIC, 24 Y values
Experimental: ATP was measured using the BacTiter-Glo^TM Microbial Cell Viability Assay (Promega) following the manufacturer’s instructions. The assay was performed for three biological replicates at 37 °C, with luminescence recorded using a Tecan Infinite M1000 Pro plate reader. The fold reduction of ATP was calculated as: Fold reduction ATP = 1 − (Ltreat − Lmedia/Lcontrol − Lmedia); where Ltreat is the luminescence of treated cells, Lmedia is the luminescence of CAMHB without cells, and Lcontrol is the luminescence of untreated cells. Resultant graphs show mean (n = 7) and std error for each data point, prepared in Prism 8. DMSO was included as a control as piperacillin was solubilized in DMSO, with final assay concentration of 2.5%.

[5] = fit headed 10 min, four-parameter variable slope
[6] = fit headed 30 min, four-parameter variable slope
[7] = fit headed 60 min, four-parameter variable slope

Structure (SMILES)	BMD MIC (A. baumannii) [µg/mL]	BMD MIC (C. albicans; 24 h) [µg/mL]	BMD MIC (S. aureus) [µg/mL]	BMD MIC (P. aeruginosa) [µg/mL]	BMD MIC (K. pneumoniae) [µg/mL]	BMD MIC (E. coli) [µg/mL]	MIC, MHB (E. coli ATCC 25922) [µg/mL]	CC50 at 24 h (in vitro; HEK-293 cells) [µg/mL]	CC50 at 24 h (in vitro; HK-2 cells) [µg/mL]	CC50 at 24 h (in vitro; HepG2 cells) [µg/mL]	CC50 HEK293 [1] [µg/mL]	CC50 HEK293, Mean [1] [µg/mL]	CC50 HepG2 [2] [µg/mL]	CC50 HepG2, Mean [2] [µg/mL]	CC50 HK2 [3] [µg/mL]	CC50 HK2, Mean [3] [µg/mL]	Heamolysis HC10, Mean [4] [µg/mL]	Heamolysis HC10 [4] [µg/mL]	further results
C[C@@H]1[C@H](O)[C@@H](C)/C=C/C=C/C=C/C=C/C=C/C=C/C=C/[C@H](O[C@@H]2O[C@H](C)[C@@H](O)[C@H](N)[C@@H]2O)C[C@@H]2O[C@](O)(C[C@@H](O)C[C@@H](O)[C@H](O)CC[C@@H](O)C[C@@H](O)CC(=O)O[C@H]1C)C[C@H](O)[C@H]2C(=O)O [Amphroterocin B, reference compound]																			BMD MIC (C. albicans; C. albicans ATCC 90028 NCCLS 11, RPMI, mode of 6 replicates): 0.5 µg/mL; BMD MIC (C. albicans; C. albicans ATCC 90028 NCCLS 11, YPD, 24 h 35 °C, mode of 6 replicates): 1 µg/mL; BMD MIC (C. neoformans; RPMI): 0.5 µg/mL; BMD MIC (C. neoformans; YPD, 24 h 35 °C + resazurin 3 h): 0.5 µg/mL
CC(C)[C@@H]1NC(=O)CNC(=O)[C@H](CC(N)=O)NC(=O)[C@H](CCCNC(=N)N)NC(=O)[C@H](CCCNC(=N)N)NC(=O)[C@H](C)NC(=O)[C@@H]2CSSC[C@H](NC(=O)[C@H](C(C)C)NC(=O)[C@H](CCCNC(=N)N)NC1=O)C(=O)N[C@@H](Cc1ccc(O)cc1)C(=O)N[C@@H](CCCNC(=N)N)C(=O)N[C@@H](CCCNC(=N)N)C(=O)N[C@H](C(=O)N[C@@H](CC(N)=O)C(=O)O)CSSC[C@H](NC(=O)[C@H](Cc1ccccc1)NC(=O)CN)C(=O)N[C@@H](Cc1c[nH]c3ccccc13)C(=O)N[C@@H](Cc1c[nH]cn1)C(=O)N[C@@H](C(C)C)C(=O)N2 [NZ17224] (HELM PEPTIDE1{G.F.C.W.H.V.C.A.R.R.N.G.V.R.V.C.Y.R.R.C.N}$PEPTIDE1,PEPTIDE1,3:R3-20:R3|PEPTIDE1,PEPTIDE1,7:R3-16:R3$$$V2.0)	0.5	32	64	0.25	0.25	0.06	0.06 (≈ 0.0235 µM)	> 300	> 250	> 300	>300	>300	>300	>300	>255	>250	>300	>300	
CC(C)[C@@H]1NC(=O)CNC(=O)[C@H](CC(N)=O)NC(=O)[C@H](CCCNC(=N)N)NC(=O)[C@H](Cc2ccc(O)cc2)NC(=O)[C@H](C(C)C)NC(=O)[C@@H]2CSSC[C@H](NC(=O)[C@H](C)NC(=O)[C@H](CCCNC(=N)N)NC1=O)C(=O)N[C@@H](Cc1ccc(O)cc1)C(=O)N[C@@H](CCCNC(=N)N)C(=O)N[C@@H](CCCNC(=N)N)C(=O)N[C@H](C(=O)N[C@@H](CC(N)=O)C(=O)O)CSSC[C@H](NC(=O)[C@H](Cc1ccccc1)NC(=O)CN)C(=O)N[C@@H](Cc1c[nH]c3ccccc13)C(=O)N[C@@H](CCCNC(=N)N)C(=O)N[C@@H](C)C(=O)N2 [NZ17228] (HELM PEPTIDE1{G.F.C.W.R.A.C.V.Y.R.N.G.V.R.A.C.Y.R.R.C.N}$PEPTIDE1,PEPTIDE1,3:R3-20:R3|PEPTIDE1,PEPTIDE1,7:R3-16:R3$$$V2.0)	1	64	64	0.5	0.25	0.125	0.125 (≈ 0.049 µM)	> 300	> 250	> 300	>300	>300	>300	>300	>255	>250	>300	>300	
CCN1CCN(C(=O)N[C@@H](C(=O)N[C@@H]2C(=O)N3[C@@H]2SC(C)(C)[C@@H]3C(=O)O)c2ccccc2)C(=O)C1=O [piperacillin]																			MIC (E. coli; Escherichia coli, ATCC700926|MG1655, read-out: BMD MIC, E. coli ATCC 700926 K12 (MG1655), CAMHB, mode of 6 replicates): 2 µg/mL (≈ 3.86 µM); ATP release, nonlinear fit: HillSlope (E. coli K12 MG1655; [5]): ~ -467.9; ATP release, nonlinear fit: IC50 (E. coli K12 MG1655; [5]): ~ 31.42 xMIC; ATP release, nonlinear fit: LogIC50 (E. coli K12 MG1655; [5]): ~ 1.497; ATP release, nonlinear fit: Top (E. coli K12 MG1655; [5]): 0.08165; ATP release, nonlinear fit: Bottom (E. coli K12 MG1655; fit headed 10 min, log(inhibitor) vs. response, variable slope (four parameters)): 0.04818; ATP release, nonlinear fit: Bottom (E. coli K12 MG1655; [6]): ~ 0.04736; ATP release, nonlinear fit: IC50 (E. coli K12 MG1655; [6]): ~ 0.000 xMIC; ATP release, nonlinear fit: Top (E. coli K12 MG1655; [6]): 0.07515; ATP release, nonlinear fit: Bottom (E. coli K12 MG1655; [7]): 0.00107; ATP release, nonlinear fit: HillSlope (E. coli K12 MG1655; [7]): ~ 0.6194; ATP release, nonlinear fit: LogIC50 (E. coli K12 MG1655; [7]): ~ 16.74; ATP release, nonlinear fit: Top (E. coli K12 MG1655; [7]): 0.1665
